# Results as given in patent US20250353891A1 (MEDIMMUNE LIMITED, priority 2022, published 2025).
# Starred links: 1 amine or outer side, 2 acyl side, 3 side chain; linkers in the order of their positions; H or OH if unused. Non-standard residues stand in square brackets, D forms with d. Residues, ends and D or L forms follow the SMILES beside them. Groups on a side chain read outwards from the residue. *: point of attachment. C18 diacid = O=C(O)CCCCCCCCCCCCCCCCC(=O)*; γGlu = O=C(O)[C@H](CCC(=O)[*:2])N[*:1]; αMeF = C[C@](N)(Cc1ccccc1)C(=O)O; AEEA = NCCOCCOCC(=O)O; Aib = CC(C)(N)C(=O)O
# Assays:
# [1] = biological target: human glucagon receptor (hGCGR) (Homo sapiens, UniProt P47871); assay: cAMP production (HTRF) in CHO cells expressing hGCGR; format: cell-based; set-up: expressed in transfected cells; conditions: Table 7, peptides modified at position 20; cAMP in CHO hGCGR cells; geometric mean; read-out: hGluc-R EC50
# Outline: (§1)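 Cells were resuspended in assay buffer at batch-optimized density, typically 1×10^5 cells/mL for hGLP-1R and 2×10^5 cells/mL for hGCGR. After 30 min incubation at room temperature with compound, cAMP was measured by two-step HTRF. EC50 values came from 4-parameter logistic fits of % Delta F.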
# [2] = biological target: human GLP-1 receptor (hGLP-1R) (Homo sapiens, UniProt P43220); assay: cAMP production (HTRF) in CHO cells expressing hGLP-1R; format: cell-based; set-up: expressed in transfected cells; conditions: for EC50: Table 7, peptides modified at position 20, cAMP in CHO hGLP-1R cells, geometric mean, read-out: hGLP-1R EC50; for % Relative Potency Ratio: Table 7, % GLP-1R activity relative to GLP-1 / % GlucR activity relative to glucagon
# Outline: as §1
# human GLP-1 receptor (hGLP-1R), sequence (P43220 24-463): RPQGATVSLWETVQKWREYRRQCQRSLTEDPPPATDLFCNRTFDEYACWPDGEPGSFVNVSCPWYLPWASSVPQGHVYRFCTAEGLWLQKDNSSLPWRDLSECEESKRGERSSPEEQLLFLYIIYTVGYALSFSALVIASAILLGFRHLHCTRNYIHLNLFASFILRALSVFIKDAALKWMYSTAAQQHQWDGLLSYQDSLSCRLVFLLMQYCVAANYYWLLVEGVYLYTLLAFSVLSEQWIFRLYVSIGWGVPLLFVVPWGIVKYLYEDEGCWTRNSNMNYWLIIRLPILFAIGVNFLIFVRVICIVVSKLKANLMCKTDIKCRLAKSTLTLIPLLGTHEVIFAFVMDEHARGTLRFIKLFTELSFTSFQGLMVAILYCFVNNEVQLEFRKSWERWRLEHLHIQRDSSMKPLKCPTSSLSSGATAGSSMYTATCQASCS
# human glucagon receptor (hGCGR), sequence (P47871 26-477): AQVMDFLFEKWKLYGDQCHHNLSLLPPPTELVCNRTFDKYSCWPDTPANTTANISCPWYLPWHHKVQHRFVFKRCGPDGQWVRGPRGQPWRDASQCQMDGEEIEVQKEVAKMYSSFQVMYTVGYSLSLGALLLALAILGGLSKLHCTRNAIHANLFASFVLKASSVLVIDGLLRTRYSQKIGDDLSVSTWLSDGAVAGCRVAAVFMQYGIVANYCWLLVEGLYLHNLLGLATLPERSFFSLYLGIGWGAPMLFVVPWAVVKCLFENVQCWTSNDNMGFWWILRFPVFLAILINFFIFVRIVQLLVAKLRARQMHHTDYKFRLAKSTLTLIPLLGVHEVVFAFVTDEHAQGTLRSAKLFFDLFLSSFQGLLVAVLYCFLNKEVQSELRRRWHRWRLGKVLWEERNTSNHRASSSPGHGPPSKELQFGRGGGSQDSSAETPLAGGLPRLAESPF
Structure (SMILES),EC50 [1] [nM],EC50 [2] [nM],% Relative Potency Ratio [2]
CC[C@H](C)[C@H](NC(=O)C(C)(C)NC(=O)[C@H](CCC(N)=O)NC(=O)[C@@H](NC(=O)[C@](C)(Cc1ccccc1)NC(=O)[C@H](CC(=O)O)NC(=O)[C@H](CCCCNC(=O)COCCOCCNC(=O)COCCOCCNC(=O)CCCCCCCCCCCCCCCCC(=O)O)NC(=O)[C@H](C)NC(=O)[C@H](C)NC(=O)[C@H](CCCNC(=N)N)NC(=O)[C@H](CO)NC(=O)[C@H](CC(=O)O)NC(=O)[C@H](CC(C)C)NC(=O)[C@](C)(Cc1ccccc1)NC(=O)[C@H](CCCCN)NC(=O)[C@H](CO)NC(=O)[C@@H](NC(=O)[C@H](CC(=O)O)NC(=O)[C@H](CO)NC(=O)[C@@H](NC(=O)[C@](C)(Cc1ccccc1)NC(=O)[C@H](CO)NC(=O)CNC(=O)[C@H](Cc1c[nH]cn1)NC(=O)C(C)(C)NC(=O)[C@@H](N)Cc1c[nH]cn1)[C@@H](C)O)C(C)C)C(C)C)C(=O)N[C@@H](C)C(=O)N[C@@H](CC(N)=O)C(=O)N[C@H](C(N)=O)[C@@H](C)O [Peptide 272] (H-H[Aib]HGS[αMeF]TSDVSK[αMeF]LDSRAAK([AEEA-AEEA-C18 diacid])D[αMeF]VQ[Aib]IANT-NH2),0.0143,0.0157,1.8
CC[C@H](C)[C@H](NC(=O)C(C)(C)NC(=O)[C@H](CCC(N)=O)NC(=O)[C@@H](NC(=O)[C@](C)(Cc1ccccc1)NC(=O)[C@H](CC(=O)O)NC(=O)[C@H](CCCCNC(=O)COCCOCCNC(=O)CCCCCCCCCCCCCCCCC(=O)O)NC(=O)[C@H](C)NC(=O)[C@H](C)NC(=O)[C@H](CCCNC(=N)N)NC(=O)[C@H](CO)NC(=O)[C@H](CC(=O)O)NC(=O)[C@H](CC(C)C)NC(=O)[C@](C)(Cc1ccccc1)NC(=O)[C@H](CCCCN)NC(=O)[C@H](CO)NC(=O)[C@@H](NC(=O)[C@H](CC(=O)O)NC(=O)[C@H](CO)NC(=O)[C@@H](NC(=O)[C@](C)(Cc1ccccc1)NC(=O)[C@H](CO)NC(=O)CNC(=O)[C@H](Cc1c[nH]cn1)NC(=O)C(C)(C)NC(=O)[C@@H](N)Cc1c[nH]cn1)[C@@H](C)O)C(C)C)C(C)C)C(=O)N[C@@H](C)C(=O)N[C@@H](CC(N)=O)C(=O)N[C@H](C(N)=O)[C@@H](C)O [Peptide 273] (H-H[Aib]HGS[αMeF]TSDVSK[αMeF]LDSRAAK([AEEA-C18 diacid])D[αMeF]VQ[Aib]IANT-NH2),0.0233,0.0221,2.1
CC[C@H](C)[C@H](NC(=O)C(C)(C)NC(=O)[C@H](CCC(N)=O)NC(=O)[C@@H](NC(=O)[C@](C)(Cc1ccccc1)NC(=O)[C@H](CC(=O)O)NC(=O)[C@H](CCCCNC(=O)COCCOCCNC(=O)CC[C@H](NC(=O)CC[C@H](NC(=O)CCCCCCCCCCCCCCCCC(=O)O)C(=O)O)C(=O)O)NC(=O)[C@H](C)NC(=O)[C@H](C)NC(=O)[C@H](CCCNC(=N)N)NC(=O)[C@H](CO)NC(=O)[C@H](CC(=O)O)NC(=O)[C@H](CC(C)C)NC(=O)[C@](C)(Cc1ccccc1)NC(=O)[C@H](CCCCN)NC(=O)[C@H](CO)NC(=O)[C@@H](NC(=O)[C@H](CC(=O)O)NC(=O)[C@H](CO)NC(=O)[C@@H](NC(=O)[C@](C)(Cc1ccccc1)NC(=O)[C@H](CO)NC(=O)CNC(=O)[C@H](Cc1c[nH]cn1)NC(=O)C(C)(C)NC(=O)[C@@H](N)Cc1c[nH]cn1)[C@@H](C)O)C(C)C)C(C)C)C(=O)N[C@@H](C)C(=O)N[C@@H](CC(N)=O)C(=O)N[C@H](C(N)=O)[C@@H](C)O [Peptide 274] (H-H[Aib]HGS[αMeF]TSDVSK[αMeF]LDSRAAK([AEEA-γGlu-γGlu-C18 diacid])D[αMeF]VQ[Aib]IANT-NH2),0.0313,0.0271,2.3
